Consider 15 compounds from PubChem BioAssay (NCI).

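Assay format: 96-well plates, 48-hour exposure. TGI marks complete inhibition of growth.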

One assay has as its system SK-MEL-28 melanoma. The assay can be described thus: growth of human tumour cells (NCI), 48 h.
For the compound `O=C1c2cccc3cccc(c23)C2NCCCN12` (configuration not stated), the TGI is above 100 µM.
`CCCCCC(=O)CCCCCCCC(O)CC(=O)OCC` (configuration not stated): the TGI was above 100 µM.
On the same count and under the same terms, to `COc1ccc(-c2nc(-c3cc4c(ccc5ccccc54)oc3=O)cs2)cc1` belongs above 100 µM; to `Cc1nn(C(=O)c2ccc(Cl)cc2)c2c1C(/C=C/c1ccccc1)SC(N)=N2` (configuration not stated), above 10 µM.
On the same count and under the same terms, to `Cc1cc(C)c(C(=O)c2nnc3ccccc3c2N)c(C)c1` belongs 56.7 µM; to `O=C1NC(=O)C(c2c[nH]c3ccccc23)=C1c1cn(C(c2ccccc2)(c2ccccc2)c2ccccc2)cn1`, 44.9 µM; to `Cc1cc(C)c2c(c1)C/C(=C\c1ccccc1C(=O)O)C2=O`, above 100 µM.
Same read-out and setting: with `CCOC(=O)c1nc2ccc(C(F)(F)F)cc2[nH]c1=O` the figure was above 100 µM.
Turning to `Cc1cn(C2CC(O)C(CO[Si](C)(C)C(C)(C)C)OC2OC(C)C)c(=O)[nH]c1=O` (configuration not stated), the TGI is above 100 µM.
Regarding `Cc1nc2ccc(NC(=S)Nc3ccccc3)cc2c(=O)n1-c1ccccc1`, the TGI was above 100 µM.
`COC(=O)C1(C(=O)OC)C/C(C)=C(/C)SCCCS1` returned a TGI above 100 µM.
Still for that read-out and setting: to `O=c1cc(CO)oc(C(O)c2ccccc2)c1O` (configuration not stated) belongs above 100 µM.

A further assay has as its system U251 CNS. Nature of the assay: growth of human tumour cells (NCI), 48 h.
Compound `CC(C)N(C(=O)C1(O)c2ccccc2C=Cc2ccccc21)C(C)C` came in with a TGI of 30.5 µM.
`O=C1c2cccc3cccc(c23)C2NCCCN12` (configuration not stated): the TGI was above 100 µM.
`CCCCCC(=O)CCCCCCCC(O)CC(=O)OCC` (configuration not stated) registered a TGI above 100 µM.
On the same count and under the same terms, to `CC(=O)N(CCc1ccccc1)C(C#N)c1ccccc1` (configuration not stated) belongs above 100 µM.
On the same count and under the same terms, with `Cc1nn(C(=O)c2ccc(Cl)cc2)c2c1C(/C=C/c1ccccc1)SC(N)=N2` (configuration not stated) the figure was above 10 µM; with `Cc1cc(C)c(C(=O)c2nnc3ccccc3c2N)c(C)c1`, above 100 µM.
With `O=C1NC(=O)C(c2c[nH]c3ccccc23)=C1c1cn(C(c2ccccc2)(c2ccccc2)c2ccccc2)cn1`, the TGI was found to be 15.3 µM.
The compound `Cc1cc(C)c2c(c1)C/C(=C\c1ccccc1C(=O)O)C2=O` came in with a TGI above 100 µM.
Regarding `CCOC(=O)c1nc2ccc(C(F)(F)F)cc2[nH]c1=O`, the TGI was above 100 µM.
Still for that read-out and setting: with `Cc1cn(C2CC(O)C(CO[Si](C)(C)C(C)(C)C)OC2OC(C)C)c(=O)[nH]c1=O` (configuration not stated) the figure was above 100 µM; with `Cc1nc2ccc(NC(=S)Nc3ccccc3)cc2c(=O)n1-c1ccccc1`, above 100 µM; with `COC(=O)C1(C(=O)OC)C/C(C)=C(/C)SCCCS1`, above 100 µM.
On to `O=c1cc(CO)oc(C(O)c2ccccc2)c1O` (configuration not stated), for which the TGI was above 100 µM.

In the next assay the test system is 786-0 renal. Nature of the assay: growth of human tumour cells (NCI), 48 h.
`Cc1nn(C(=O)Cc2ccccc2)c2c1C(c1ccc(Cl)cc1)SC(N)=N2` (configuration not stated) had a TGI above 100 µM.
`CC(C)N(C(=O)C1(O)c2ccccc2C=Cc2ccccc21)C(C)C`: the TGI was 38.8 µM.
In the case of `O=C1c2cccc3cccc(c23)C2NCCCN12` (configuration not stated), the TGI is above 100 µM.
On the same count and under the same terms, to `CCCCCC(=O)CCCCCCCC(O)CC(=O)OCC` (configuration not stated) belongs above 100 µM.
With `COc1ccc(-c2nc(-c3cc4c(ccc5ccccc54)oc3=O)cs2)cc1`, the TGI worked out at 82 µM.
Same read-out and setting: to `CC(=O)N(CCc1ccccc1)C(C#N)c1ccccc1` (configuration not stated) belongs above 100 µM; to `Cc1nn(C(=O)c2ccc(Cl)cc2)c2c1C(/C=C/c1ccccc1)SC(N)=N2` (configuration not stated), above 10 µM.
Still for that read-out and setting: with `Cc1cc(C)c(C(=O)c2nnc3ccccc3c2N)c(C)c1` the figure was 32.2 µM.
As to `O=C1NC(=O)C(c2c[nH]c3ccccc23)=C1c1cn(C(c2ccccc2)(c2ccccc2)c2ccccc2)cn1`, the TGI is 22.3 µM.
Same read-out and setting: with `Cc1cc(C)c2c(c1)C/C(=C\c1ccccc1C(=O)O)C2=O` the figure was above 100 µM.
On to `CCOC(=O)c1nc2ccc(C(F)(F)F)cc2[nH]c1=O`, for which the TGI was above 100 µM.
The same measure, in the same setting: with `Cc1cn(C2CC(O)C(CO[Si](C)(C)C(C)(C)C)OC2OC(C)C)c(=O)[nH]c1=O` (configuration not stated) the figure was 31.6 µM.
Still for that read-out and setting: with `Cc1nc2ccc(NC(=S)Nc3ccccc3)cc2c(=O)n1-c1ccccc1` the figure was above 100 µM; with `COC(=O)C1(C(=O)OC)C/C(C)=C(/C)SCCCS1`, above 100 µM; with `O=c1cc(CO)oc(C(O)c2ccccc2)c1O` (configuration not stated), above 100 µM.

A further assay concerns A498 renal. The assay can be described thus: growth of human tumour cells (NCI), 48 h.
As for `Cc1nn(C(=O)Cc2ccccc2)c2c1C(c1ccc(Cl)cc1)SC(N)=N2` (configuration not stated), the TGI is above 100 µM.
`CC(C)N(C(=O)C1(O)c2ccccc2C=Cc2ccccc21)C(C)C` gave a TGI of 29.8 µM.
The same measure, in the same setting: to `O=C1c2cccc3cccc(c23)C2NCCCN12` (configuration not stated) belongs above 100 µM; to `CCCCCC(=O)CCCCCCCC(O)CC(=O)OCC` (configuration not stated), above 100 µM; to `CC(=O)N(CCc1ccccc1)C(C#N)c1ccccc1` (configuration not stated), above 100 µM.
`Cc1cc(C)c(C(=O)c2nnc3ccccc3c2N)c(C)c1`: the TGI was above 100 µM.
On the same count and under the same terms, with `O=C1NC(=O)C(c2c[nH]c3ccccc23)=C1c1cn(C(c2ccccc2)(c2ccccc2)c2ccccc2)cn1` the figure was 18.3 µM; with `Cc1cc(C)c2c(c1)C/C(=C\c1ccccc1C(=O)O)C2=O`, above 100 µM; with `CCOC(=O)c1nc2ccc(C(F)(F)F)cc2[nH]c1=O`, above 100 µM.
The same measure, in the same setting: to `Cc1nc2ccc(NC(=S)Nc3ccccc3)cc2c(=O)n1-c1ccccc1` belongs above 100 µM; to `O=c1cc(CO)oc(C(O)c2ccccc2)c1O` (configuration not stated), above 100 µM.

For the next assay, the system named is HT29 colon. Nature of the assay: growth of human tumour cells (NCI), 48 h.
As for `Cc1nn(C(=O)Cc2ccccc2)c2c1C(c1ccc(Cl)cc1)SC(N)=N2` (configuration not stated), the TGI was above 100 µM.
As for `CC(C)N(C(=O)C1(O)c2ccccc2C=Cc2ccccc21)C(C)C`, the TGI stood at 33.5 µM.
Still for that read-out and setting: to `O=C1c2cccc3cccc(c23)C2NCCCN12` (configuration not stated) belongs above 100 µM; to `CCCCCC(=O)CCCCCCCC(O)CC(=O)OCC` (configuration not stated), above 100 µM; to `COc1ccc(-c2nc(-c3cc4c(ccc5ccccc54)oc3=O)cs2)cc1`, above 100 µM.
On the same count and under the same terms, with `CC(=O)N(CCc1ccccc1)C(C#N)c1ccccc1` (configuration not stated) the figure was above 100 µM; with `Cc1nn(C(=O)c2ccc(Cl)cc2)c2c1C(/C=C/c1ccccc1)SC(N)=N2` (configuration not stated), above 10 µM; with `Cc1cc(C)c(C(=O)c2nnc3ccccc3c2N)c(C)c1`, 76.8 µM.
The same measure, in the same setting: with `O=C1NC(=O)C(c2c[nH]c3ccccc23)=C1c1cn(C(c2ccccc2)(c2ccccc2)c2ccccc2)cn1` the figure was 13.3 µM; with `Cc1cc(C)c2c(c1)C/C(=C\c1ccccc1C(=O)O)C2=O`, above 100 µM.
Consider `CCOC(=O)c1nc2ccc(C(F)(F)F)cc2[nH]c1=O`, for which the TGI was above 100 µM.
For `Cc1cn(C2CC(O)C(CO[Si](C)(C)C(C)(C)C)OC2OC(C)C)c(=O)[nH]c1=O` (configuration not stated), the TGI stood at 44.1 µM.
The same measure, in the same setting: to `Cc1nc2ccc(NC(=S)Nc3ccccc3)cc2c(=O)n1-c1ccccc1` belongs above 100 µM.
The compound `COC(=O)C1(C(=O)OC)C/C(C)=C(/C)SCCCS1` had a TGI above 100 µM.
Still for that read-out and setting: with `O=c1cc(CO)oc(C(O)c2ccccc2)c1O` (configuration not stated) the figure was above 100 µM.

The next assay deals with M14 melanoma. The assay can be described thus: growth of human tumour cells (NCI), 48 h.
The compound `Cc1nn(C(=O)Cc2ccccc2)c2c1C(c1ccc(Cl)cc1)SC(N)=N2` (configuration not stated) had a TGI above 100 µM.
